Assay results: ChEMBL document CHEMBL1201862, “PubChem BioAssay data set” (2004)
Active and inactive are the calls of the source. Cut-off read from the data, not from the text of the source, for most assays here: actives have a measured EC50 and inactives only a lower limit.

Legend:
[1] = target: T1, Replicative DNA helicase DnaB (Mycobacterium tuberculosis, UniProt P9WMR3); test: DnaB intein splicing inhibitors, dose response, biochemical, cell-free fluorescence (AID 449749); type: functional
T1 sequence (P9WMR3 whole entry): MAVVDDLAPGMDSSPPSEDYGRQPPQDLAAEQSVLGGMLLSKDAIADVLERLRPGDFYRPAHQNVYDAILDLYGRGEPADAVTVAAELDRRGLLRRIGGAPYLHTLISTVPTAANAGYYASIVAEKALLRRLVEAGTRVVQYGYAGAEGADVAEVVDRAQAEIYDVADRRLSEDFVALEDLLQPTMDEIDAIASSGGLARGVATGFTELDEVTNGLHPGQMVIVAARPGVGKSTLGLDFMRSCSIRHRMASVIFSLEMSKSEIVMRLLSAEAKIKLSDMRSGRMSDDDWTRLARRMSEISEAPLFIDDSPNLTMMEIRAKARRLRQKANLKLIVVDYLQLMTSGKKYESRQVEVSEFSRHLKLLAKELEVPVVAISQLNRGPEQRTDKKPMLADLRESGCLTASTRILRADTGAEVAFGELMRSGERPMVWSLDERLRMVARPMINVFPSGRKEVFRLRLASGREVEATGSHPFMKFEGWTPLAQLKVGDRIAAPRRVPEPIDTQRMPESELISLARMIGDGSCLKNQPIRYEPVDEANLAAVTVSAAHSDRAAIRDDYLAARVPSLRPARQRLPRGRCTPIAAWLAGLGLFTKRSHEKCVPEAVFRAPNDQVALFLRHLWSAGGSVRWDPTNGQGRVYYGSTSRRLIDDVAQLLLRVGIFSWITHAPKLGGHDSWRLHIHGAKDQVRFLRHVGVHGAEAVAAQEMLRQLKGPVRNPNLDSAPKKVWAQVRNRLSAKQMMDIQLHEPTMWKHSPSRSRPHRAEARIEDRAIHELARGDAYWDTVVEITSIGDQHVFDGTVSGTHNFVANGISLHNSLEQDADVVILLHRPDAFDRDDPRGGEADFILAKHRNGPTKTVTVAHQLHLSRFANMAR

[2] = target: T2, Protein RecA (Mycobacterium tuberculosis, UniProt P9WHJ3); test: Fluorescence Cell-Free Homogeneous Dose Retest to Identify Inhibitors of RecA-Intein Splicing Activity. [Related pubchem assays (depositor defined):AID2097, AID2223, AID489010, AID492950]; type: functional
T2 sequence (P9WHJ3 whole entry): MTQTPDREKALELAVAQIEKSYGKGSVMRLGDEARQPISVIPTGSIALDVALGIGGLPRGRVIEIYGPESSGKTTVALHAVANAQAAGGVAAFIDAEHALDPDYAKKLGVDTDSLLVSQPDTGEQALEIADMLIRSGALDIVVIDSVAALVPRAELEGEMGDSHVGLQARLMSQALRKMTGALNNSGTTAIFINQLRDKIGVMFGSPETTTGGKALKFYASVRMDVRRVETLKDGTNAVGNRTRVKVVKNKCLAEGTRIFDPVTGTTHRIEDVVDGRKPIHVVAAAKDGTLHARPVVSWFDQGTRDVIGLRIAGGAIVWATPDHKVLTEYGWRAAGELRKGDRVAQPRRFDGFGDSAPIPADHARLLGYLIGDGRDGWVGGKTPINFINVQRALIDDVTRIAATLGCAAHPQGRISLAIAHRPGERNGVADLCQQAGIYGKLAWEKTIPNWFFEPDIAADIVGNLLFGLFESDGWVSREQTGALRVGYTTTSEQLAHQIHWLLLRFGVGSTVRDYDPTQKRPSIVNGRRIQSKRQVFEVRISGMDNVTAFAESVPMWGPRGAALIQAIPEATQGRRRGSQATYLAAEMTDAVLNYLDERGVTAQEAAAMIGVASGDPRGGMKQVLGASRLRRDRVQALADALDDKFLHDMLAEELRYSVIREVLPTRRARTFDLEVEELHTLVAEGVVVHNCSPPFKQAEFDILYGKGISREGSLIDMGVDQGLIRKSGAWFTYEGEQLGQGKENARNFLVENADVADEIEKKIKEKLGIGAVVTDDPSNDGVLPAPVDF

[3] = target: T3, Corticotropin-releasing factor receptor 2/Corticotropin-releasing factor-binding protein (Homo sapiens, UniProt P24387+Q13324); test: Dose Response confirmation of uHTS hits for small molecule antagonists of the CRF-binding protein and CRF-R2 receptor complex.; type: functional; settings: read-out: IC50_Mean
T3 sequence (Q13324 whole entry): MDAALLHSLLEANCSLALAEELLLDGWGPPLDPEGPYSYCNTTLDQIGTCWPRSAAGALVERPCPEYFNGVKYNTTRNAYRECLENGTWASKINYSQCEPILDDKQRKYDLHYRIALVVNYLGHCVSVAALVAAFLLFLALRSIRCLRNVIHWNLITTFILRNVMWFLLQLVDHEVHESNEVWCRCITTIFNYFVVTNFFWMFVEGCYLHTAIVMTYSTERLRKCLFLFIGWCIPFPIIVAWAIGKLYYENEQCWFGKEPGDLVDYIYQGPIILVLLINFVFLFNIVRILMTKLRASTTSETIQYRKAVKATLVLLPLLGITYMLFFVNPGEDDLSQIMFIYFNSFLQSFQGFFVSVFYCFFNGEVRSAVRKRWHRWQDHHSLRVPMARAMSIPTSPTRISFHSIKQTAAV
T3 sequence (P24387 whole entry): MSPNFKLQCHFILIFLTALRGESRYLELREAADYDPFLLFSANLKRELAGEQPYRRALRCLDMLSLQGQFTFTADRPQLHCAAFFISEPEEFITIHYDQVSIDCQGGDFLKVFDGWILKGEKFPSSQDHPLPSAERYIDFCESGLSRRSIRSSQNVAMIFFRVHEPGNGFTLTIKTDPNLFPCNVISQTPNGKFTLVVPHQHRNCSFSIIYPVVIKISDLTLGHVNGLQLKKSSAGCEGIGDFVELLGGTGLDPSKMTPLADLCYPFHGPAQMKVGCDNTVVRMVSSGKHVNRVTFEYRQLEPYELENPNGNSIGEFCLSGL

[4] = target: T3, Corticotropin-releasing factor receptor 2/Corticotropin-releasing factor-binding protein; test: activators of CRF receptor 2 with binding protein – uHTS hits, confirmation (AID 602473); type: functional; settings: read-out: EC50_Mean
[5] = target: T4, Heat shock factor protein 1 (Mus musculus, UniProt P38532); test: HSF1 potentiators in luciferase reporter cells, confirmation, cell-based, NIH3T3, luminescence, dose retest (AID 435004); type: functional;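 note: stress induced by proteasome inhibitor MG132 added 30 min after compound; luciferase reporter driven by HSF1 response element in NIH3T3 cells; actives raise luminescence as potentiators of the MG132 stress response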
T4 sequence (P38532 whole entry): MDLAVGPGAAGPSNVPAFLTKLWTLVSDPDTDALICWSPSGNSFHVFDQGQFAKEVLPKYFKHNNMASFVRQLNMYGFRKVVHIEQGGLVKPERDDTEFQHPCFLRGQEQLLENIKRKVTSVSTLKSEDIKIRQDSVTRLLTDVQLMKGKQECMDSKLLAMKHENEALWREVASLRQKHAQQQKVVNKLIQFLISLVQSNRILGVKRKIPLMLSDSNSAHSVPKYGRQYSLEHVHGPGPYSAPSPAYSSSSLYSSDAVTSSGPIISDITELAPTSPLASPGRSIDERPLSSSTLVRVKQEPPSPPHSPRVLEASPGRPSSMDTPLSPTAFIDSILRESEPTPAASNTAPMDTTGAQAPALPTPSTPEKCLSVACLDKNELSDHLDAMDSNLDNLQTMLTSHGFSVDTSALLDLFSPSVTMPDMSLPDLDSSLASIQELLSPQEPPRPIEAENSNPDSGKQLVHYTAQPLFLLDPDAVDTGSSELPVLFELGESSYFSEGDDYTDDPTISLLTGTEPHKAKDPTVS

[6] = inhibitors of intracellular T. cruzi replication, confirmation, NIH3T3 host cells, beta-gal luminescence (AID 2044); type: functional, cell-based;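 note: intracellular parasites grown in NIH/3T3 mouse fibroblasts as host cells; luminescent beta-galactosidase reporter signal from transgenic T. cruzi replicating inside host cells; inhibitors lower the luminescence signal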
[7] = cytotoxicity toward NIH3T3 fibroblasts, dose response, counter-screen, cell-based, ATP luminescence, mouse fibroblasts (AID 2010); type: functional;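 note: cells exposed to compound for about 90 hours before reading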
[8] = system: INS1; test: beta cell apoptosis inhibitors, cytokine rescue, dose response, luminescence, retest (AID 449756); type: functional, cell-based; settings: Rattus norvegicus;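 note: cell death triggered by IL-1 beta plus TNF-alpha plus IFN-gamma mixture; protective hits raise ATP signal compared with cytokine alone wells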
[9] = system: Streptococcus sp. 'group A'; test: growth inhibition of control SK(-) GAS strain, dose response, counter-screen for streptokinase expression inhibitor project, luminescence, kanamycin, BacTiterGlo, confirmation (AID 1900); type: functional, organism-based
[10] = system: Streptococcus; test: Group A Streptococcus viability loss, dose response, counter-screen for streptokinase expression inhibitor project, luminescence, BacTiterGlo (AID 1915); type: functional, organism-based;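 note: potency for reduction of bacterial viability or growth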

## O=c1c2ccccc2nc2n1CCS2(=O)=O
[1]
  AC50: 37.2 µM (active)
[2]
  EC50: 12.9 µM (active)

## Cn1c(-c2ccc(-c3ccccc3)cc2)c[nH]c1=S
[3]
  IC50: > 47.1 µM (inactive)
[4]
  EC50: > 53 µM (inactive)

## Cc1ccc(N2C(=O)SC(N(CC(=O)O)c3ccc(C)cc3)C2=O)cc1 (stereo unspecified)
[5]
  EC50: > 260 µM (inactive)

## CC(NC(=O)CCCN1C(=O)c2ccccc2C1=O)c1ccc2c(c1)CCCC2 (stereo unspecified)
[5]
  EC50: > 260 µM (inactive)

## COc1cccc(N(CC(=O)N2CCc3ccccc3C2)S(C)(=O)=O)c1
[5]
  EC50: > 260 µM (inactive)

## CC(C)c1n[nH]c2c1C(Cc1ccccc1)C(C#N)=C(N)O2 (stereo unspecified)
[1]
  AC50: 38.7 µM (active)
[2]
  EC50: 8.67 µM (active)

## CN(C)C(=O)c1ccc(=O)n(Cc2ccc(Cl)cc2Cl)c1
[5]
  EC50: > 260 µM (inactive)

## NCCCCCc1nnc(SC/C=C/c2ccccc2)o1
[5]
  EC50: > 260 µM (inactive)

## CCOC(=O)NNC(=O)c1[nH]c2ccc(Br)cc2c1-c1ccccc1
[3]
  IC50: > 47.1 µM (inactive)
[4]
  EC50: > 53 µM (inactive)

## O=C(O)c1ccc(N(Cc2ccccc2)S(=O)(=O)c2ccccc2)cc1
[5]
  EC50: > 260 µM (inactive)

## Fc1ccc(C2NC(S)=NC3=C2N2CCC3CC2)cc1 (stereo unspecified)
[5]
  EC50: > 260 µM (inactive)

## COc1ccc(Cl)cc1NC(=O)c1ccoc1C
[3]
  IC50: > 47.1 µM (inactive)
[4]
  EC50: > 53 µM (inactive)

## CCOC(=O)C(NCc1ccccn1)(NC(=O)c1cccnc1)C(F)(F)F (stereo unspecified)
[3]
  IC50: > 47.1 µM (inactive)
[4]
  EC50: > 53 µM (inactive)

## O=C(NC(=S)N1CCN(C/C=C/c2ccccc2)CC1)c1ccc(Cl)nc1
[5]
  EC50: > 260 µM (inactive)

## Cc1n[nH]c2c1C1(CCN(C(=O)OCc3ccccc3)CC1)C(C#N)=C(N)O2
[1]
  AC50: 13.5 µM (active)
[2]
  EC50: 1.59 µM (active)

## Cc1cc(C)cc(NC(=O)C2CCCN(c3nccc(C)n3)C2)c1 (stereo unspecified)
[3]
  IC50: > 47.1 µM (inactive)
[4]
  EC50: > 53 µM (inactive)

## COc1ccc(CCNc2oc(-c3ccccc3OC)nc2C#N)cc1
[5]
  EC50: > 260 µM (inactive)

## Nc1ccc2nc(N3CCOCC3)sc2c1
[6]
  EC50: 1.96 µM (active)
[7]
  EC50: 5.16 µM (active)
[1]
  AC50: 93.7 µM (active)
[2]
  EC50: 23.7 µM (active)

## Cn1cnc([N+](=O)[O-])c1Sc1nnc(-c2cccnc2)n1C
[1]
  AC50: 38.1 µM (active)
[2]
  EC50: 13.3 µM (active)

## Cc1ccccc1Cn1ccc(=NCc2ccccc2)cc1
[8]
  AC50: > 260 µM (inactive)

## O=[N+]([O-])c1ccc(Oc2cccc(Br)c2)c2ccncc12
[1]
  AC50: > 380 µM (inactive)
[2]
  EC50: 1.17 µM (active)

## CCC1=Nc2cc(C(=O)NCCN3CCCC3)ccc2Sc2ccccc21
[1]
  AC50: > 380 µM (inactive)
[2]
  EC50: > 380 µM (inactive)

## COc1ccc(CN(C)C(=O)c2ccc(NS(=O)(=O)c3ccc(F)cc3)cc2)c(OC)c1OC
[8]
  AC50: > 260 µM (inactive)

## COC(=O)Nc1ccc(S(=O)(=O)N2CCC(C(=O)N3CCCC(C)C3)CC2)cc1 (stereo unspecified)
[5]
  EC50: > 260 µM (inactive)

## CC1=NNC(=O)C1C(c1ccc(F)cc1)C(C#N)C#N (stereo unspecified)
[1]
  AC50: 7.09 µM (active)
[2]
  EC50: 2.83 µM (active)

## N=C(CN1CCCCC1)NS(=O)(=O)c1cc(Cl)cc(Cl)c1
[3]
  IC50: > 47.1 µM (inactive)
[4]
  EC50: > 53 µM (inactive)

## O=c1oc(CCO)cc2ccc(Br)cc12
[3]
  IC50: > 47.1 µM (inactive)
[4]
  EC50: > 53 µM (inactive)

## COc1ccc(C(CC(=O)O)c2ccc3c(c2)OCO3)cc1 (stereo unspecified)
[3]
  IC50: > 47.1 µM (inactive)
[4]
  EC50: > 53 µM (inactive)

## CN(c1ccccc1)P(=O)(N1CC1)N1CC1
[3]
  IC50: > 47.1 µM (inactive)
[4]
  EC50: > 53 µM (inactive)

## O=C(Nc1cc([N+](=O)[O-])ccc1O)c1cccc(NC(=O)c2ccco2)c1
[9]
  EC50: 5.58 µM (active)
[10]
  EC50: 6.8 µM (active)

## Cc1cc2[nH]ncc2cc1NC(=S)NC(=O)c1ccccc1
[1]
  AC50: 178 µM (active)
[2]
  EC50: > 380 µM (inactive)

## C#CCOCCOCCOCCNc1nc(N2CCN(C(=O)Cn3cc(CCO)nn3)CC2)nc(N2CCN(C(=O)[C@H](CCCCN)n3cc(CC(C)O)nn3)CC2)n1 (stereo partly specified)
[3]
  IC50: > 47.1 µM (inactive)
[4]
  EC50: > 53 µM (inactive)

## Cc1oc(-c2ccccc2Cl)nc1CN1C(=O)CN=C(c2ccccc2)c2ccccc21
[5]
  EC50: > 260 µM (inactive)

## O=c1c2cc(N3CCOCC3)ccc2[nH]c(=S)n1Cc1ccccn1
[5]
  EC50: > 260 µM (inactive)

## COc1cc(CC(=O)NCc2cccs2)cc(OC)c1OC
[3]
  IC50: > 47.1 µM (inactive)
[4]
  EC50: > 53 µM (inactive)

## Cn1cccc1/C=N/NC(=O)Cc1cccs1
[8]
  AC50: > 260 µM (inactive)

## COc1cc(CNC2CCCC2)cc(OC)c1
[5]
  EC50: > 260 µM (inactive)

## COc1cc(/C=C/C(=O)OCc2c(C)noc2C)ccc1OC(F)F
[5]
  EC50: > 260 µM (inactive)
